These results are taken from patent US20120128650A1, “EXTENDED ACTING OXYGEN GENERATING COMPOSITION FOR TREATING MICROBIAL INFECTIONS” (DEC INTERNATIONAL NZ LIMITED, priority 2009, published 2012).

In one data set the test system is Staphylococcus aureus. The experiment in a line: Growth of Staphylococcus aureus in mastitic milk, colony counts. Type of data set: cell-based. Conditions: 10 micromoles per ml added at 60 minutes, oxygen-limited.
A short description of data set [1]: pH, oxygen and peroxide analysis after addition of coated sodium percarbonate to milk. In kind it is physicochemical. The protocol:
Sodium percarbonate coated with ethyl cellulose was added to 20 mL pasteurized and homogenized milk. The pH value (by pH Meter), the concentration of oxygen (by potentiometric electrode) and peroxide (by chemical test strips) were measured at interval sampling time, as shown in FIG. 4A-C.

Experimental for Staphylococcus aureus: Milk was collected at the morning milking, using aseptic technique, from a quarter that had been identified as having a sub-clinical infection with a single organism. The milk was taken to the laboratory and within 2 hours of collection divided amongst sterile incubation containers. The container was either a sealed vessel that was filled so there was no head-space and could be sampled through a rubber septum (limited oxygen) or a flask with a large surface area and head space, incubated in a shaking incubator (oxygenated). Because milk is aerated during collection and handling the samples should have the same oxygen content at the start of incubation. The growth rate was determined by sampling at regular intervals, diluting into recovery diluent, plating and counting the number of colonies.

As for `OO` [Hydrogen peroxide], the “number of viable organisms” value with Staphylococcus aureus (after 4 hours, from around 3000 cfu per ml at 60 minutes) was 20 cfu per ml; in the data set on Staphylococcus aureus (at 10 hours and thereafter), “no detectable organisms”. As for `O=C([O-])[O-].O=C([O-])[O-].OO.OO.OO.[Na+].[Na+].[Na+].[Na+]` [sodium percarbonate], the “amount required to deliver 30 mg peroxide” value in data set [1] lay in the range of 70 to 100 mg.
